Each structure is given as a SMILES string.

The values that follow come from patent US20220386609A1, “META-DIAMIDE INSECTICIDES” (FMC Corporation, priority 2019, published 2022).

Data set [1] concerns potato leafhopper (Empoasca fabae (Harris)). The experiment in a line: Test D: control of potato leafhopper through contact and/or systemic means. The format is in vivo. The note with it: 144 h, Soleil bean plant, adults, 6 days; for mortality at 250 ppm: tested at 250 ppm; for mortality at 50 ppm: tested at 50 ppm. The method, then:
(§1) Test compounds were formulated using a solution containing 10% acetone, 90% water and 300 ppm Activator 90® non-ionic surfactant (Loveland Products, Loveland, Colo., USA). The formulated compounds were applied in 1 mL of liquid through an atomizer nozzle positioned 1.27 cm (0.5 inches) above the top of each test unit. Test compounds were sprayed at the rates indicated, and each test was replicated three times.
For evaluating control of potato leafhopper (Empoasca fabae (Harris)) through contact and/or systemic means, the test unit consisted of a small open container with a 5-6-day-old Soleil bean plant (primary leaves emerged) inside. White sand was added to the top of the soil, and one of the primary leaves was excised prior to application of the test compound.
Test compounds were formulated and sprayed at 250 and/or 50 ppm. After spraying of the formulated test compound, the test units were allowed to dry for 1 hour before they were post-infested with 5 potato leafhoppers (18-to-21-day-old adults). A black, screened cap was placed on the top of the test unit, and the test units were held for 6 days in a growth chamber at 20° C. and 70% relative humidity. Each test unit was then visually assessed for insect mortality.

The subject of data set [2] is cotton melon aphid (Aphis gossypii (Glover)). The experiment in a line: Test F: control of cotton melon aphid through contact and/or systemic means. The data set is classed as in vivo. The note with it: 144 h, tested at 250 ppm, okra plant, 6 days. The method, then: as §1
[…] This was pre-infested with 30-40 insects on a piece of leaf according to the cut-leaf method, and the soil of the test unit was covered with a layer of sand.
Test compounds were formulated and sprayed at 250 and/or 50 ppm. After spraying, the test units were maintained in a growth chamber for 6 days at 19° C. and 70% relative humidity. Each test unit was then visually assessed for insect mortality.

By mortality is commonly meant the share of the test organisms that died. Lower therefore signals a weak lethal effect. In data set [1], `O=C(CC(c1cccc(C(F)(F)F)c1)C(F)(F)F)Nc1ccc(Cl)c(C(=O)Nc2ccc(F)cc2F)c1` (stereo not drawn) [Compound 5, N-[4-chloro-3-[[(2,4-difluorophenyl)amino]carbonyl]phenyl]-β,3-bis(trifluoromethyl)benzenepropanamide] had a mortality at 250 ppm of at least 80%.

For the compound `O=C(CC(c1ccc(Cl)c(Cl)c1)C(F)(F)F)Nc1ccc(Cl)c(C(=O)Nc2ccc(F)cc2)c1` (stereo not drawn) [Compound 1, 3,4-dichloro-N-[4-chloro-3-[[(4-fluorophenyl)amino]carbonyl]phenyl]-β-(trifluoro-methyl)benzenepropanamide], in data set [1], the mortality at 250 ppm was at least 80%. In data set [1], `O=C(CC(c1cc(Cl)cc(Cl)c1)C(F)(F)F)Nc1ccc(Cl)c(C(=O)Nc2ccc(F)cc2F)c1` (stereo not drawn) [Compound 60, 3,5-dichloro-N-[4-chloro-3-[[(2,4-difluorophenyl)amino]carbonyl]phenyl]-β-(trifluoro-methyl)benzenepropanamide] had a mortality at 50 ppm of at least 80% and a mortality at 250 ppm of at least 80%. As for `O=C(C[C@H](c1cccc(C(F)(F)F)c1)C(F)(F)F)Nc1ccc(Cl)c(C(=O)Nc2ccc(F)cc2F)c1` [Compound 103, (βR)—N-[4-chloro-3-[[(2,4-difluorophenyl)amino]carbonyl]phenyl]-β,3-bis(trisfluoromethyl)benzenepropanamide], the mortality at 50 ppm in data set [1] was at least 80%.

For `O=C(CC(c1ccc(F)c(Cl)c1)C(F)(F)F)Nc1ccc(Cl)c(C(=O)Nc2ccc(F)cc2F)c1` (stereo not drawn) [Compound 115, 3-chloro-N-[4-chloro-3-[[(2,4-difluorophenyl)amino]carbonyl]phenyl]-4-fluoro-β-(trifluoromethyl)benzenepropanamide], the mortality at 50 ppm in data set [1] was at least 80%.

What is called melting point is the temperature of the solid-liquid transition. As for `O=C(CC(c1cccc(C(F)(F)F)c1)C(F)(F)F)Nc1ccc(Cl)c(C(=O)NCc2ccc(F)cc2F)c1` (stereo not drawn) [Compound 148, N-[4-chloro-3-[[(2,4-difluorophenyl)methylamino]carbonyl]phenyl]-β,3-bis(trifluoromethyl)benzenepropanamide], the melting point is 96 to 99 °C.

`O=C(CC(c1ccc(Cl)c(Cl)c1)C(F)(F)F)Nc1ccc(Cl)c(C(=O)Nc2ccc(F)cc2F)c1` (stereo not drawn) [Compound 52, 3,4-dichloro-N-[4-chloro-3-[[(2,4-difluorophenyl)amino]carbonyl]phenyl]-β-(trifluoro-methyl)benzenepropanamide]: the mortality at 250 ppm in data set [2] and in data set [1] was at least 80% each time. The compound further showed a mortality at 50 ppm in data set [1] of at least 80%.
